# Experimental data published in ChEMBL document CHEMBL4390652, “Design, biological evaluation and X-ray crystallography of nanomolar multifunctional ligands targeting simultaneously acetylcholinesterase and glycogen synthase kinase-3” (Eur J Med Chem, 2019).
# pIC50: −log10 of the molar value.
# Key:
# [1] = target: Serine/threonine-protein kinase/endoribonuclease IRE1 (Homo sapiens) (UniProt O75460); assay: Binding affinity to wild-type human partial length ERN1 (S551 to E852 residues) expressed in mammalian expression system assessed as residual binding level at 10 uM by Kinomescan method relative to control
# [2] = target: Macrophage colony-stimulating factor 1 receptor (Homo sapiens) (UniProt P07333); assay: Binding affinity to wild-type human partial length autoinhibited CSF1R (Y538 to S939 residues) expressed in mammalian expression system assessed as residual binding level at 10 uM by Kinomescan method relative to control
# [3] = target: Non-receptor tyrosine-protein kinase TNK1 (Homo sapiens) (UniProt Q13470); assay: Binding affinity to wild-type human full length TNK1 (M1 to P661 residues) expressed in bacterial expression system assessed as residual binding level at 10 uM by Kinomescan method relative to control
# [4] = target: Ephrin type-A receptor 3 (Homo sapiens) (UniProt P29320); assay: Binding affinity to wild-type human partial length EPHA3 (D604 to K889 residues) expressed in bacterial expression system assessed as residual binding level at 10 uM by Kinomescan method relative to control
# [5] = target: Tyrosine-protein kinase Fer (Homo sapiens) (UniProt P16591); assay: Binding affinity to wild-type human partial length FER (S542 to T822 residues) expressed in bacterial expression system assessed as residual binding level at 10 uM by Kinomescan method relative to control
# [6] = target: Serine/threonine-protein kinase BRSK1 (Homo sapiens) (UniProt Q8TDC3); assay: Binding affinity to wild-type human partial length BRSK1 (M1 to E754 residues) expressed in bacterial expression system assessed as residual binding level at 10 uM by Kinomescan method relative to control
# [7] = test system: MDCK-MDR1; assay: Cytotoxicity against MDCK2-MDR1 cells assessed as reduction in cell viability at 75 uM incubated for 2 hrs by MTT assay; type: ADME, cell-based, Canis lupus familiaris; conditions: dog, mdck-mdr1, 2 h
# [8] = target: Activin receptor type-1 (Homo sapiens) (UniProt Q04771); assay: Binding affinity to wild-type human ACVR1 (C188 to C509 residues) expressed in bacterial expression system assessed as residual binding level at 10 uM by Kinomescan method relative to control
# [9] = target: Calcium/calmodulin-dependent protein kinase type II subunit alpha (Homo sapiens) (UniProt Q9UQM7); assay: Binding affinity to wild-type human partial length CAMK2A (M1 to K328 residues) expressed in bacterial expression system assessed as residual binding level at 10 uM by Kinomescan method relative to control
# [10] = target: Rhodopsin kinase GRK7 (Homo sapiens) (UniProt Q8WTQ7); assay: Binding affinity to wild-type human full length GRK7 (M1 to L553 residues) expressed in mammalian expression system assessed as residual binding level at 10 uM by Kinomescan method relative to control
# [11] = target: Serine/threonine-protein kinase SIK1 (Homo sapiens) (UniProt P57059); assay: Binding affinity to wild-type human partial length SIK (M1 to Y304 residues) expressed in bacterial expression system assessed as residual binding level at 10 uM by Kinomescan method relative to control
# [12] = target: Serine/threonine-protein kinase 32C (Homo sapiens) (UniProt Q86UX6); assay: Binding affinity to wild-type human partial length YANK3 (M68 to G486 residues) expressed in bacterial expression system assessed as residual binding level at 10 uM by Kinomescan method relative to control
# [13] = target: Mitogen-activated protein kinase kinase kinase 7 (Homo sapiens) (UniProt O43318); assay: Binding affinity to wild-type human partial length TAK1 (M1 to Q303 residues) expressed in mammalian expression system assessed as residual binding level at 10 uM by Kinomescan method relative to control
# [14] = target: Citron Rho-interacting kinase (Homo sapiens) (UniProt O14578); assay: Binding affinity to wild-type human partial length CIT (M68 to E432 residues) expressed in bacterial expression system assessed as residual binding level at 10 uM by Kinomescan method relative to control
# [15] = target: Casein kinase I isoform alpha-like (Homo sapiens) (UniProt Q8N752); assay: Binding affinity to wild-type human full length CSNK1A1L (M1 to N337 residues) expressed in bacterial expression system assessed as residual binding level at 10 uM by Kinomescan method relative to control
# [16] = target: Serine/threonine-protein kinase pim-3 (Homo sapiens) (UniProt Q86V86); assay: Binding affinity to wild-type human partial length PIM3 (G16 to A317 residues) expressed in bacterial expression system assessed as residual binding level at 10 uM by Kinomescan method relative to control
# [17] = target: G protein-coupled receptor kinase 3 (Homo sapiens) (UniProt P35626); assay: Binding affinity to wild-type human full length GRK3 (M1 to L688 residues) expressed in mammalian expression system assessed as residual binding level at 10 uM by Kinomescan method relative to control
# [18] = target: Serine/threonine-protein kinase TAO2 (Homo sapiens) (UniProt Q9UL54); assay: Binding affinity to wild-type human partial length TAOK2 (M1 to A320 residues) expressed in mammalian expression system assessed as residual binding level at 10 uM by Kinomescan method relative to control
# [19] = target: Mast/stem cell growth factor receptor Kit (Homo sapiens) (UniProt P10721); assay: Binding affinity to wild-type human partial length autoinhibited KIT (Y545 to D952 residues) expressed in mammalian expression system assessed as residual binding level at 10 uM by Kinomescan method relative to control
# [20] = target: Phosphatidylinositol 4,5-bisphosphate 3-kinase catalytic subunit alpha isoform (Homo sapiens) (UniProt P42336); assay: Binding affinity to wild-type human partial length PIK3CA (R108 to N1068 residues) expressed in mammalian expression system assessed as residual binding level at 10 uM by Kinomescan method relative to control
# [21] = test system: SH-SY5Y; assay: Cytotoxicity against human SH-SY5Y cells assessed as reduction in cell viability incubated for 72 hrs by MTT assay; type: cell-based
# [22] = target: Bone morphogenetic protein receptor type-1B (Homo sapiens) (UniProt O00238); assay: Binding affinity to wild-type human partial length BMPR1B (D178 to L502 residues) expressed in mammalian expression system assessed as residual binding level at 10 uM by Kinomescan method relative to control
# [23] = target: Serine/threonine-protein kinase PAK 4 (Homo sapiens) (UniProt O96013); assay: Binding affinity to wild-type human partial length PAK4 (Q144 to R438 residues) expressed in bacterial expression system assessed as residual binding level at 10 uM by Kinomescan method relative to control
# [24] = target: Phosphorylase b kinase gamma catalytic chain, liver/testis isoform (Homo sapiens) (UniProt P15735); assay: Binding affinity to wild-type human partial length PHKG2 (M1 to W300 residues) expressed in bacterial expression system assessed as residual binding level at 10 uM by Kinomescan method relative to control
# [25] = target: Tyrosine-protein kinase ABL1 (Homo sapiens) (UniProt P00519); assay: Binding affinity to wild-type human phosphorylated ABL1 (S229 to K512 residues) expressed in mammalian expression system assessed as residual binding level at 10 uM by Kinomescan method relative to control
# Sequence of Mast/stem cell growth factor receptor Kit (Homo sapiens) (P10721 whole entry, the tested form may be a part, canonical isoform): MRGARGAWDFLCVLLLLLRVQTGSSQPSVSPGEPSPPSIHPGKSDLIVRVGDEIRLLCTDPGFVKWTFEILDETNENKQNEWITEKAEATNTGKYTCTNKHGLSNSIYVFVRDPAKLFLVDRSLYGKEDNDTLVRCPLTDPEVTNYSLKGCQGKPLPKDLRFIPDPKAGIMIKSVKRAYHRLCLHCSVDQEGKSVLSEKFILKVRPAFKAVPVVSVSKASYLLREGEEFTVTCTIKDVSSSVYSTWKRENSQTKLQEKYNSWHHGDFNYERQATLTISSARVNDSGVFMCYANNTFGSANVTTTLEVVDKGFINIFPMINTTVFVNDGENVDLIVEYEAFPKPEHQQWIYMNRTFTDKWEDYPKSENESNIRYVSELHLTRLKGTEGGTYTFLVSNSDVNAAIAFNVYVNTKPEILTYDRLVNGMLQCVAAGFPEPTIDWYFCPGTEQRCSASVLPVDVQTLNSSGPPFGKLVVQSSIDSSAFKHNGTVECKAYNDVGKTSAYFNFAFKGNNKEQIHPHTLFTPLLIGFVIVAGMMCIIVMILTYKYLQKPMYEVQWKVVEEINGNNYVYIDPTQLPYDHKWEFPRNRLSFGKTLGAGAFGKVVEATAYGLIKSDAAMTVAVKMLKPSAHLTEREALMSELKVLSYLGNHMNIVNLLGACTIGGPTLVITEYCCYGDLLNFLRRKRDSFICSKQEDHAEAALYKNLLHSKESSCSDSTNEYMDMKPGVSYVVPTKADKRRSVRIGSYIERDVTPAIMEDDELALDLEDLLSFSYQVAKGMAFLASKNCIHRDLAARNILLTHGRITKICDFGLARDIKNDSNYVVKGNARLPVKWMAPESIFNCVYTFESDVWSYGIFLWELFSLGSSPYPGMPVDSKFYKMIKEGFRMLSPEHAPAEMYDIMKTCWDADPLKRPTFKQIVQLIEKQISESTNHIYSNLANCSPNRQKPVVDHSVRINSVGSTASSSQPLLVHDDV
# Sequence of Serine/threonine-protein kinase 32C (Homo sapiens) (Q86UX6 whole entry, the tested form may be a part): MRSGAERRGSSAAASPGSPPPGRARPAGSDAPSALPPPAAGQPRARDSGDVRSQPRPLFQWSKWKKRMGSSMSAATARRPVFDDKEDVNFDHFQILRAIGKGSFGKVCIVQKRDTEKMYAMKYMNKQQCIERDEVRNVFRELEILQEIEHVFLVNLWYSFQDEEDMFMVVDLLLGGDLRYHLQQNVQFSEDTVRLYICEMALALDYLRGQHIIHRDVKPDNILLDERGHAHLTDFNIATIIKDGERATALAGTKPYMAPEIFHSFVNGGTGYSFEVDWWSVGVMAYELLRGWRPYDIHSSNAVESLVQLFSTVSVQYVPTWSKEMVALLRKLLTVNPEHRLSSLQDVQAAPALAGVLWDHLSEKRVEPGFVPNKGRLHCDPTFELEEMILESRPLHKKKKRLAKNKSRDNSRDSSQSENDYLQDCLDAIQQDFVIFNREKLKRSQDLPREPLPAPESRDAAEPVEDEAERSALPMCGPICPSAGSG
# Sequence of Non-receptor tyrosine-protein kinase TNK1 (Homo sapiens) (Q13470 whole entry, the tested form may be a part): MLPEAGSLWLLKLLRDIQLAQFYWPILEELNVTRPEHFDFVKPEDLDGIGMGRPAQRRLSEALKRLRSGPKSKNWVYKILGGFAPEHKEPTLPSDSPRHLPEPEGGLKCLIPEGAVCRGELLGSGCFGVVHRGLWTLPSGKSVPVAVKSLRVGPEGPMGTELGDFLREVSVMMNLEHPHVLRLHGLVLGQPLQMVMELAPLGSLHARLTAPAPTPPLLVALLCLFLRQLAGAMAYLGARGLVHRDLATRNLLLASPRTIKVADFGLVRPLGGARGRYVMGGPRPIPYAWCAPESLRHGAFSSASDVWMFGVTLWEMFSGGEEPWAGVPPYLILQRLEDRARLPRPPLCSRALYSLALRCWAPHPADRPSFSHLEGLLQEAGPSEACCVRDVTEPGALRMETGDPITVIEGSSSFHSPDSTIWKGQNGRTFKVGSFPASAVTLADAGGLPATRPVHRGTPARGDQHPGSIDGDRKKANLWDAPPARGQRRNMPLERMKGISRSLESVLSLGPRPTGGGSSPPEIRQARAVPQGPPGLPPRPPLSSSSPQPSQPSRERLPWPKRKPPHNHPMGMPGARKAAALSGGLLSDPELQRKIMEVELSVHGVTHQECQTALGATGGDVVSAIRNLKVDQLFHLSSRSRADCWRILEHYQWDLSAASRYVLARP
# Sequence of Serine/threonine-protein kinase TAO2 (Homo sapiens) (Q9UL54 whole entry, the tested form may be a part): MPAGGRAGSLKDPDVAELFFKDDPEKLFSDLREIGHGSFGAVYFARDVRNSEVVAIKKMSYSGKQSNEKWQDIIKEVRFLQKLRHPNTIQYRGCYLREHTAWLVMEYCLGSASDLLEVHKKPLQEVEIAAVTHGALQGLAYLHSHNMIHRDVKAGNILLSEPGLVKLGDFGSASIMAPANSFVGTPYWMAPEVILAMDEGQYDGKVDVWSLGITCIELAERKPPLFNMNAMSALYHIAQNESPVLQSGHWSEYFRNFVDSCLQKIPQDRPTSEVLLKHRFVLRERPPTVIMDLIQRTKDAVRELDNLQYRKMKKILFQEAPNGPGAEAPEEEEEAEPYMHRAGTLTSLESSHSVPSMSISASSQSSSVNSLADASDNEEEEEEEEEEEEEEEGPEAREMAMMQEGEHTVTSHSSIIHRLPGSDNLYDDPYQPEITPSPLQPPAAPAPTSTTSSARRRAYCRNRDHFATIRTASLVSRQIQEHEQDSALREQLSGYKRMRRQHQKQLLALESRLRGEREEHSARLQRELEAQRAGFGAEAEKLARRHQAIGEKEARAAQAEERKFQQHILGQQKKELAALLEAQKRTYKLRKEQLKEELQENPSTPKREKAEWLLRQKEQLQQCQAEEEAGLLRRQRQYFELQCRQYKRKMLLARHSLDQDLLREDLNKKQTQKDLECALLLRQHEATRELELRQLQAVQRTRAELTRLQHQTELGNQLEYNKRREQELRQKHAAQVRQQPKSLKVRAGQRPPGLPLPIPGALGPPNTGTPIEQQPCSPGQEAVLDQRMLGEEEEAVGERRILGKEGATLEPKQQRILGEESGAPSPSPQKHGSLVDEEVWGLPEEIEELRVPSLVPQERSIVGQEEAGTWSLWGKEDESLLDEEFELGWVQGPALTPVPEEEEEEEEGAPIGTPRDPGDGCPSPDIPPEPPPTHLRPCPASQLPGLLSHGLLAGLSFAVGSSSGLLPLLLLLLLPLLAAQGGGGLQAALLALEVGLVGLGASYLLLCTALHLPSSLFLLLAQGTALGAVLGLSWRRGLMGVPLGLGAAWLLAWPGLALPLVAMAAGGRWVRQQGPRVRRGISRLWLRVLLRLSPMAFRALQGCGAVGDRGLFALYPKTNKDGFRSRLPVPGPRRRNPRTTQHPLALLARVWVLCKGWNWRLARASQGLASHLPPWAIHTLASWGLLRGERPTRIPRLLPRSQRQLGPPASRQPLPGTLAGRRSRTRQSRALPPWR
# Sequence of Bone morphogenetic protein receptor type-1B (Homo sapiens) (O00238 whole entry, the tested form may be a part): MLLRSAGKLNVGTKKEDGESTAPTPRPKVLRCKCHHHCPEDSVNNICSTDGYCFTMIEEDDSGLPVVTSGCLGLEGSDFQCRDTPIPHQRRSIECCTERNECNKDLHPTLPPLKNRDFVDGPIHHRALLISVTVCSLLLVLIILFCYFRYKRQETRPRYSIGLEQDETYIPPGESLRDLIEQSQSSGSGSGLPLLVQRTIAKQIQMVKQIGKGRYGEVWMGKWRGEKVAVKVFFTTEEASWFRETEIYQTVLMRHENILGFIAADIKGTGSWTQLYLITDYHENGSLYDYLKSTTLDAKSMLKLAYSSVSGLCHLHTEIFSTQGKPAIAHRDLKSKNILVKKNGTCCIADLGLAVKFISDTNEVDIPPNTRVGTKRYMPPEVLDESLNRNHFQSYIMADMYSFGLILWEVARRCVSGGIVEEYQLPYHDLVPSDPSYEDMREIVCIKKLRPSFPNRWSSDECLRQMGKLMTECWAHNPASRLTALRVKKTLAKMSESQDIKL
# Sequence of Mitogen-activated protein kinase kinase kinase 7 (Homo sapiens) (O43318 whole entry, the tested form may be a part): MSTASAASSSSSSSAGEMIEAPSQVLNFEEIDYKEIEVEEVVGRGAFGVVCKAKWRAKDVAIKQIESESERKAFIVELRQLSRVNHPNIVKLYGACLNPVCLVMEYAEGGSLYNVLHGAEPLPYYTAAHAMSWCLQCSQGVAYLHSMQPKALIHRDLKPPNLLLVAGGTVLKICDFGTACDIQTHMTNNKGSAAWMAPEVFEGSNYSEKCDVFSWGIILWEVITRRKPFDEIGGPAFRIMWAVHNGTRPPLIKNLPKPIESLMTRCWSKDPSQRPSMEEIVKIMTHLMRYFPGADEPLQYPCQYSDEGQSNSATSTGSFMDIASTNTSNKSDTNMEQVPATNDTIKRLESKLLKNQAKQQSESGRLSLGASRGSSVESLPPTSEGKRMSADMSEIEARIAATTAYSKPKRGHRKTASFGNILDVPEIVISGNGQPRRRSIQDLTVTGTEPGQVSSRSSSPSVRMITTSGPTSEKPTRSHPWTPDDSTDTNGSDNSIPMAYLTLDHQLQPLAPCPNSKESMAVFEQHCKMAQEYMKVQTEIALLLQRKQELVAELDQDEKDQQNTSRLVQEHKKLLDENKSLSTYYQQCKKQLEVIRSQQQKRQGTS
compound,measurement,setting,value
O=C(Nc1cc(-c2cn(CCNc3c4c(nc5ccccc35)CCCC4)nn2)ccn1)Nc1cccc2c1C1CCCCN1C2=O (racemic),Activity,[1],87%
same,Activity,[2],0.54%
same,Activity,[3],48%
same,Activity,[4],77%
same,Activity,[5],100%
same,Activity,[6],66%
same,Activity,[7],Non-Toxic
same,Activity,[8],49%
same,Activity,[9],79%
same,Activity,[10],61%
same,Activity,[11],73%
same,Activity,[12],75%
same,Activity,[13],1.6%
same,Activity,[14],0.95%
same,Activity,[15],4.5%
same,Activity,[16],24%
same,Activity,[17],100%
same,Activity,[18],56%
same,Activity,[19],7%
same,Activity,[20],73%
same,pIC50,[21],4.89
same,Activity,[22],25%
same,Activity,[23],14%
same,Activity,[24],50%
same,Activity,[25],0.6%
